Data on 26 molecules can be found in patent US5733912A, “7A-heterocycle substituted hexahydro-1H-pyrrolizine compounds useful in controlling chemical synaptic transmission” (Abbott Laboratories, priority 1997, dated 1998).

The target of experiment [1] is neuronal nicotinic acetylcholine receptors. The experiment can be described thus: Displacement of [3H]-cytisine from nicotinic acetylcholine receptors, crude synaptic membrane preparations from whole rat brain. To be noted: [3H]-cytisine 1.25 nM, whole rat brain membranes, 60 minutes at 4° C.; IC50 converted to Ki by Cheng and Prusoff; read-out: Binding to Neuronal Nicotinic Acetylcholine Receptors (Binding). As to the method:
For the purpose of identifying compounds as cholinergic agents which are capable of interacting with nicotinic acetylcholine receptors in the brain, a ligand-receptor binding assay was carried out as the initial screen. Compounds of the present invention were effective at interacting with neuronal nicotinic acetylcholine receptors as assayed for their ability to displace radioligand from neuronal nicotinic acetylcholine channel receptors labeled with [^3 H]-cytisine ([^3 H]-CYT).
Displacement of [^3 H]-CYT from nicotinic acetylcholine receptors was determined using crude synaptic membrane preparations from whole rat brain (Pabreza et al., Molecular Pharmacol., 1990, 39: 9). Washed membranes were stored at -80° C. prior to use. Frozen aliquots were slowly thawed and resuspended in 20 volumes of buffer (containing: 120 mM NaCl, 5 mM KCl, 2 mM MgCl2, 2 mM CaCl2 and 50 mM Tris-Cl, pH 7.4 @4° C.). After centrifuging at 20,000×g for 15 minutes, the pellets were resuspended in 30 volumes of buffer. Homogenate (containing 125-150 μg protein) was added to triplicate tubes containing concentrations of test compound and [^3 H]-CYT (1.25 nM) in a final volume of 500 μL. Samples were incubated for 60 minutes at 4° C., then rapidly filtered through Whatman GF/B filters presoaked in 0.5% polyethylimine using 3×4 mL of ice-cold buffer. The filters are counted in 4 mL of Ecolume® (ICN). Nonspecific binding was determined in the presence of 10 μM (-)-nicotine and values were expressed as a percentage of total binding.
(In a radioligand displacement assay an active substance lowers the binding of a labelled ligand.)

Experiment [2] deals with neuronal nicotinic acetylcholine receptors. The experiment is described as follows: 86Rb+ efflux assay in IMR-32 human neuroblastoma cells (activation or inhibition of neuronal nicotinic acetylcholine receptors). It is filed as cell-based. The settings on record: for IMR-32 % response (conc.): relative to the response elicited by 100 μM (S)-nicotine; for IMR-32 % Inhibition (conc.): inhibition of the efflux elicited by 100 μM (S)-nicotine. As for the experimental part: Cells of the IMR-32 human neuroblastoma clonal cell line (ATCC, Rockville, Md.) were maintained in a log phase of growth according to established procedures (Lukas, 1993). Experimental cells were seeded at a density of 500,000 cells/mL into a 24-well tissue culture dish. Plated cells were allowed to proliferate for at least 48 hours before loading with 2 μCi/mL of ^86 Rb^+ (35 Ci/mmol) overnight at 37° C. The ^86 Rb^+ efflux assays were performed according to previously published protocols (Lukas, R. J., J. Pharmacol. Exp. Ther., 265: 294-302, 1993) except serum-free Dulbecco's Modified Eagle's Medium was used during the ^86 Rb^+ loading, rinsing, and agonist-inducedefflux steps.
Responses (reported as percent relative to the response elicited by 100 μM (S)-nicotine) are shown for the indicated concentrations of selected compounds of the invention. The inhibition data (given for other selected compounds) reflect inhibition of the efflux elicited by 100 μM (S)-nicotine at the indicated concentration. […] This finding is in agreement with the results of others who have linked dopamine release, which is dependent upon the ion flux in synaptic transmission, to binding at nicotinic receptors (cf., for example, Lippiello and Caldwell, U.S. Pat. No. 5,242,935, issued Sep. 7, 1993; Caldwell and Lippiello, U.S. Pat. No. 5,248,690, issued Sep. 28, 1993; and Wonnacott et al., Prog. Brain Res., 79: 157-163 (1989)).

Molecules are shown by their SMILES. Where a name gives a salt, the structure may show the parent alone.

For the molecule `Cl.Cl.c1ccc2ncc(C34CCCN3CCC4)cc2c1` [Example 4, 7a-(3-quinolinyl)-hexahydro-1H-pyrrolizine dihydrochloride], in experiment [1], the Ki came to 4.3 nM. Also, the “IMR-32 % response (conc.)” value in experiment [2] (10 μM) was determined as 40%. For the molecule `Cc1cncc(C23CCCN2CCC3)c1.Cl` [Example 21, 7a-(5-methyl-3-pyridinyl)-hexahydro-1H-pyrrolizine hydrochloride salt], in experiment [1], the Ki turned out to be 0.33 nM. Moreover, in experiment [2] (1 μM), the “IMR-32 % response (conc.)” value is listed as 56%. For `c1ccc(-c2cncc(C34CCCN3CCC4)c2)cc1` [Example 25, 7a-(5-phenyl-3-pyridinyl)-hexahydro-1H-pyrrolizine hydrochloride salt], the Ki in experiment [1] was determined as 0.25 nM. `Cc1cc(C23CCCN2CCC3)on1.Cl` [Example 1, 7a-(3-methyl-5-isoxazolyl)-hexahydro-1H-pyrrolizine hydrochloride]: the Ki in experiment [1] was 0.97 nM. Moreover, the “IMR-32 % response (conc.)” value in experiment [2] (10 μM) came to 110%.

With `c1ccc(COc2cncc(C34CCCN3CCC4)c2)cc1` [Example 16b, 7a-(3-benzyloxy-5-pyridinyl)-hexahydro-1H-pyrrolizine], in experiment [1], the Ki worked out at 0.27 nM. For `CCCc1cc(C23CCCN2CCC3)on1.Cl` [Example 14, 7a-(3-propyl-5-isoxazolyl)-hexahydro-1H-pyrrolizine hydrochloride salt], the Ki in experiment [1] is 1.7 nM. The “IMR-32 % response (conc.)” value in experiment [2] (100 μM) was 74%.

Take `Cl.Fc1ccc(C23CCCN2CCC3)c(F)n1` [Example 10, 7a-(2,6-difluoro-3-pyridinyl)-hexahydro-1H-pyrrolizine hydrochloride]: in experiment [1], the Ki is 2.9 nM. For the same molecule, in experiment [2] (10 μM), the “IMR-32 % Inhibition (conc.)” value is listed as 12% and the “IMR-32 % response (conc.)” value is listed as 13%. On to `Cc1cc(C23CCCN2CCC3)cnc1Cl.Cl` [Example 19, 7a-(6-chloro-5-methyl-3-pyridinyl)-hexahydro-1H-pyrrolizine hydrochloride salt], for which the Ki in experiment [1] worked out at 0.05 nM. Further, the “IMR-32 % response (conc.)” value in experiment [2] (1 μM) stood at 91%. For the molecule `Cl.Fc1ccc(C23CCCN2CCC3)cn1` [Example 12, 7a-(6-fluoro-3-pyridinyl)-hexahydro-1H-pyrrolizine hydrochloride salt], the Ki in experiment [1] came out at 0.27 nM. In experiment [2] (10 μM), the “IMR-32 % response (conc.)” value is 93%.

Turning to `Clc1ncccc1C12CCCN1CCC2` [Example 7, 7a-(2-chloro-3-pyridinyl)-hexahydro-1H-pyrrolizine hydrochloride], the Ki in experiment [1] came to 436 nM. For `Cc1ccncc1C12CCCN1CCC2.Cl` [Example 24, 7a-(4-methyl-3-pyridinyl)-hexahydro-1H-pyrrolizine hydrochloride salt], the Ki in experiment [1] was 72 nM. For the same molecule, in experiment [2] (10 μM), the “IMR-32 % Inhibition (conc.)” value is 14%. Also, in experiment [2] (100 μM), the “IMR-32 % response (conc.)” value stood at 0%. For the molecule `c1ccc(Cc2cc(C34CCCN3CCC4)on2)cc1` [Example 15, 7a-(3-benzyl-5-isoxazolyl)-hexahydro-1H-pyrrolizine hydrochloride salt], the Ki in experiment [1] came to 4 nM. Same read-out and setting: with `Cc1cc(C23CCCN2CCC3)[nH]n1` [Example 2, 7a-(1H-3-methyl-5-pyrazolyl)-hexahydro-1H-pyrrolizine dihydrochloride] the figure was 70 nM. Regarding `Cl.c1ncc(C23CCCN2CCC3)cn1` [Example 9, 7a-(5-pyrimidinyl)-hexahydro-1H-pyrrolizine hydrochloride], the Ki in experiment [1] was 3.7 nM. Further, the “IMR-32 % response (conc.)” value in experiment [2] (100 μM) is on record as 39%.

Regarding `Cc1cc(C23CCCN2CCC3)cnc1F.Cl` [Example 18, 7a-(6-fluoro-5-methyl-3-pyridinyl)hexahydro-1H-pyrrolizine hydrochloride salt], in experiment [1], the Ki worked out at 0.11 nM. In addition, in experiment [2] (10 μM), the “IMR-32 % response (conc.)” value is recorded as 66%. `Clc1ccc(C23CCCN2CCC3)c(Cl)n1` [Example 11, 7a-(2,6-dichloro-3-pyridinyl)-hexahydro-1H-pyrrolizine hydrochloride salt]: the Ki in experiment [1] was found to be 1420 nM.

For the molecule `Fc1ncccc1C12CCCN1CCC2` [Example 6, 7a-(2-fluoro-3-pyridinyl)-hexahydro-1H-pyrrolizine hydrochloride salt], the Ki in experiment [1] is 5.7 nM. In the case of `Cl.Fc1ncc(C23CCCN2CCC3)cc1Br` [Example 22, 7a-(5-bromo-6-fluoro-3-pyridinyl)-hexahydro-1H-pyrrolizine hydrochloride salt], in experiment [1], the Ki came to 0.22 nM. Also, the “IMR-32 % response (conc.)” value in experiment [2] (10 μM) is given as 42%. The corresponding values for `Brc1cncc(C23CCCN2CCC3)c1.Cl` [Example 17, 7a-(5-bromo-3-pyridinyl)-hexahydro-1H-pyrrolizine hydrochloride salt] are 0.61 nM and 41%. For the molecule `Cl.Clc1ccc(C23CCCN2CCC3)cn1` [Example 5, 7a-(6-chloro-3-pyridinyl)-hexahydro-1H-pyrrolizine hydrochloride], the Ki in experiment [1] came out at 0.1 nM. In experiment [2] (1 μM), the “IMR-32 % response (conc.)” value came to 82%. `Cl.Clc1cc(C23CCCN2CCC3)cnc1Cl` [Example 8, 7a-(5,6-dichloro-3-pyridinyl)-hexahydro-1H-pyrrolizine hydrochloride]: the Ki in experiment [1] was 0.055 nM. In addition, the “IMR-32 % response (conc.)” value in experiment [2] (1 μM) worked out at 71%. For the molecule `CCc1cc(C23CCCN2CCC3)on1.Cl` [Example 13, 7a-(3-ethyl-5-isoxazolyl)-hexahydro-1H-pyrrolizine hydrochloride salt], in experiment [1], the Ki was 1.4 nM. In experiment [2] (100 μM), the “IMR-32 % response (conc.)” value came to 108%. Take `Cc1ccc(C23CCCN2CCC3)cn1.Cl` [Example 20, 7a-(6-methyl-3-pyridinyl)-hexahydro-1H-pyrrolizine hydrochloride salt]: the Ki in experiment [1] came out at 0.56 nM. In experiment [2] (1 μM), the “IMR-32 % response (conc.)” value is given as 98%. As for `Cl.Oc1cncc(C23CCCN2CCC3)c1` [Example 16, 7a-(3-hydroxy-5-pyridinyl)-hexahydro-1H-pyrrolizine hydrochloride salt], the Ki in experiment [1] came to 1.4 nM. The “IMR-32 % response (conc.)” value in experiment [2] (100 μM) turned out to be 53%. As to `Cl.c1cncc(C23CCCN2CCC3)c1` [Example 3, 7a-(3-pyridinyl)-hexahydro-1H-pyrrolizine hydrochloride], the Ki in experiment [1] was 0.38 nM. The “IMR-32 % response (conc.)” value in experiment [2] (10 μM) is reported as 71%. The corresponding values for `Cl.Fc1ncc(C23CCCN2CCC3)cc1Cl` [Example 23, 7a-(5-chloro-6-fluoro-3-pyridinyl)-hexahydro-1H-pyrrolizine hydrochloride salt] are 0.23 nM and 68%.
